Laboratory results reported in ChEMBL document CHEMBL3596159, “Beyond substrate analogues: new inhibitor chemotypes for glycosyltransferases” (Medchemcomm, 2014).
≈ marks a conversion by molar mass, not a printed value. Each block holds one compound with its values, some of them ahead of it.

Columns and labels:
[1] = target: T1, Beta-galactoside alpha-2,6-sialyltransferase 1 (Homo sapiens, UniProt P15907); assay: Inhibition of human ST6Gal1
T1 sequence (P15907 whole entry): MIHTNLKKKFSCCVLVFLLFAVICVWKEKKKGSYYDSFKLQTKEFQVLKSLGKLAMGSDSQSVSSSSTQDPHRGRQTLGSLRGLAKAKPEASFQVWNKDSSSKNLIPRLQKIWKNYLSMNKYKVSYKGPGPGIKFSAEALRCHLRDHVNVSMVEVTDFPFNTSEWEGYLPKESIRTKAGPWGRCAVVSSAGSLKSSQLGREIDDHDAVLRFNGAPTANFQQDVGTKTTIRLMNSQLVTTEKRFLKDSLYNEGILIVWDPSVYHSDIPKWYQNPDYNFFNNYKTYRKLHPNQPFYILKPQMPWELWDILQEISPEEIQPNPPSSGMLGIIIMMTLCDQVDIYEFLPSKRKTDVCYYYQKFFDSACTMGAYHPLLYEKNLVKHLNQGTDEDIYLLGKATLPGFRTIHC

[2] = target: Beta-galactoside alpha-2,6-sialyltransferase 1 (Rattus norvegicus, UniProt P13721); assay: Inhibition of rat ST6Gal1
Beta-galactoside alpha-2,6-sialyltransferase 1 (Rattus norvegicus, UniProt P13721), sequence (P13721 whole entry): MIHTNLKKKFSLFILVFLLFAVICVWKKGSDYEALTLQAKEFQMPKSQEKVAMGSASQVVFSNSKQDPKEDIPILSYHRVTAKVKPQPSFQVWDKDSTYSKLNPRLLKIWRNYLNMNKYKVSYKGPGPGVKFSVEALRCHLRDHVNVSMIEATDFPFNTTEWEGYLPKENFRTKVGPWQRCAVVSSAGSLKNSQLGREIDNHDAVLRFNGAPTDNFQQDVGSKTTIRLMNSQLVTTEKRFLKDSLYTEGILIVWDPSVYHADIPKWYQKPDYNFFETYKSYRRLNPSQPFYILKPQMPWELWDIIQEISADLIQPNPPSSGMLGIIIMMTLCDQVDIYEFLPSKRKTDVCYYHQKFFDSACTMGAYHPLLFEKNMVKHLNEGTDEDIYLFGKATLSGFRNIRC

[3] = target: CMP-N-acetylneuraminate-beta-1,4-galactoside alpha-2,3-sialyltransferase (Rattus norvegicus, UniProt Q02734); assay: Inhibition of rat ST3Gal3
CMP-N-acetylneuraminate-beta-1,4-galactoside alpha-2,3-sialyltransferase (Rattus norvegicus, UniProt Q02734), sequence (Q02734 whole entry): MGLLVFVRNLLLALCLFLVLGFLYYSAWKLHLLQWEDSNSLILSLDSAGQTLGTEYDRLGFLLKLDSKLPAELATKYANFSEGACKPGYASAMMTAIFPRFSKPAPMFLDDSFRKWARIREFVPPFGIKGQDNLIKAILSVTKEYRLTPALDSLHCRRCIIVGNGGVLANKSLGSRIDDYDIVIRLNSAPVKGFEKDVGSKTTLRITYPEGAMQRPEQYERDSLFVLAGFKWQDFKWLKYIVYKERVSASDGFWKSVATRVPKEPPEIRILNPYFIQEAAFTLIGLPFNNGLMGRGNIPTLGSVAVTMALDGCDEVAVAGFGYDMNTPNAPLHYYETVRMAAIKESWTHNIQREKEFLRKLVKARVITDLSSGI

[4] = Inhibition of Candida albicans chitin synthase
[5] = target: Alpha-(1,3)-fucosyltransferase 4 (Homo sapiens, UniProt P22083); assay: Inhibition of FucT-4 (unknown origin)
Alpha-(1,3)-fucosyltransferase 4, sequence (P22083 whole entry): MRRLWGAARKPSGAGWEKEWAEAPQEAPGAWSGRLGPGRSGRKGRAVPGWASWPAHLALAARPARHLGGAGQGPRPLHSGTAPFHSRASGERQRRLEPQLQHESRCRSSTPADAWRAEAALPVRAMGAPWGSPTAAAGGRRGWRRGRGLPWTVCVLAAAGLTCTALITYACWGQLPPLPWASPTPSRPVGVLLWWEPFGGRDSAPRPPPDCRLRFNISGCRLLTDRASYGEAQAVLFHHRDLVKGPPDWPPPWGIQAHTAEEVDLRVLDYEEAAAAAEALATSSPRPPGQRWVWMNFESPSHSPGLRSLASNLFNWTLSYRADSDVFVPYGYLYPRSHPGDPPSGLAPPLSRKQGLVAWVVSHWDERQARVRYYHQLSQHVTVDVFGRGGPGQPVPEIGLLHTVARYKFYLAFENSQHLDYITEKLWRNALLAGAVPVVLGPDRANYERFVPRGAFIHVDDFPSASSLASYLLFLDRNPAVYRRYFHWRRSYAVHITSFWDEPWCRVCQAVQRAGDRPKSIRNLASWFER

[6] = Inhibition of sialyltransferase (unknown origin); design: species or system Homo sapiens
[7] = target: T2, CMP-N-acetylneuraminate-beta-galactosamide-alpha-2,3-sialyltransferase 1 (Homo sapiens, UniProt Q11201); assay: Inhibition of ST3Gal 1 (unknown origin)
T2 sequence (Q11201 whole entry): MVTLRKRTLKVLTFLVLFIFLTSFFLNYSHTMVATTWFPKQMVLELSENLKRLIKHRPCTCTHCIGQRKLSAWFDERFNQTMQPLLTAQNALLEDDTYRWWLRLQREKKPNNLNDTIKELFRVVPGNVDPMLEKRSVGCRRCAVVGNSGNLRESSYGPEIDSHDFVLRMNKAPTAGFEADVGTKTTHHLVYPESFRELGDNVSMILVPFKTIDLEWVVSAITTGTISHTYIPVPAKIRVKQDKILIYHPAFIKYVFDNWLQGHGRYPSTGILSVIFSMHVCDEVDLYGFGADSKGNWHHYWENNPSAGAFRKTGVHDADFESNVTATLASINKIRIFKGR

[8] = target: T3, 4-galactosyl-N-acetylglucosaminide 3-alpha-L-fucosyltransferase FUT5 (Homo sapiens, UniProt Q11128); assay: Uncompetitive inhibition of FucT-5 (unknown origin) using GDP-fucose as donor substrate
T3 sequence (Q11128 whole entry): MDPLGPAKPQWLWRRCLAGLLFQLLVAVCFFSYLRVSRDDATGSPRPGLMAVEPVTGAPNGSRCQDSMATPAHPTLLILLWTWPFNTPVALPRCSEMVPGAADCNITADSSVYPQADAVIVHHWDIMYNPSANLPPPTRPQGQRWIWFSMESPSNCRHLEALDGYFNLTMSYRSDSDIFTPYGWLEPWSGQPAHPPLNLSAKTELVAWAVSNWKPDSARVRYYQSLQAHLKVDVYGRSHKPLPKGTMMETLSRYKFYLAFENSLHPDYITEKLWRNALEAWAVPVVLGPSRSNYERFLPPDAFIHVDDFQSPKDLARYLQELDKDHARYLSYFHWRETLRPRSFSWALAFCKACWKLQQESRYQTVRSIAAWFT

[9] = target: T3, 4-galactosyl-N-acetylglucosaminide 3-alpha-L-fucosyltransferase FUT5; assay: Non-competitive inhibition of FucT-5 (unknown origin) using LacNAc as acceptor substrate
[10] = target: T3, 4-galactosyl-N-acetylglucosaminide 3-alpha-L-fucosyltransferase FUT5; assay: Inhibition of FucT-5 (unknown origin)
[11] = target: T4, 4-galactosyl-N-acetylglucosaminide 3-alpha-L-fucosyltransferase FUT6 (Homo sapiens, UniProt P51993); assay: Inhibition of FucT-6 (unknown origin)
T4 sequence (P51993 whole entry): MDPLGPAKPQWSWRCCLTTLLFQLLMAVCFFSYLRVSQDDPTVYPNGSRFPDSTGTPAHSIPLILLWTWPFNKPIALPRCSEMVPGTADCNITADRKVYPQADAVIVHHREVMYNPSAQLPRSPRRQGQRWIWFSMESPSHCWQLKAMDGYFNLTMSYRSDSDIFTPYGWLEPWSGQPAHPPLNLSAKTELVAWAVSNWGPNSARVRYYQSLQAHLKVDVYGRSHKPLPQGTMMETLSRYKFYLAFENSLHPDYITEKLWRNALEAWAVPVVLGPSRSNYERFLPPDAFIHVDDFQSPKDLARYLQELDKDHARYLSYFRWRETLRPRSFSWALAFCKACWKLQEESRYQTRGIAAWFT

[12] = target: T5, CMP-N-acetylneuraminate-beta-1,4-galactoside alpha-2,3-sialyltransferase (Homo sapiens, UniProt Q11203); assay: Inhibition of ST3N (unknown origin)
T5 sequence (Q11203 whole entry): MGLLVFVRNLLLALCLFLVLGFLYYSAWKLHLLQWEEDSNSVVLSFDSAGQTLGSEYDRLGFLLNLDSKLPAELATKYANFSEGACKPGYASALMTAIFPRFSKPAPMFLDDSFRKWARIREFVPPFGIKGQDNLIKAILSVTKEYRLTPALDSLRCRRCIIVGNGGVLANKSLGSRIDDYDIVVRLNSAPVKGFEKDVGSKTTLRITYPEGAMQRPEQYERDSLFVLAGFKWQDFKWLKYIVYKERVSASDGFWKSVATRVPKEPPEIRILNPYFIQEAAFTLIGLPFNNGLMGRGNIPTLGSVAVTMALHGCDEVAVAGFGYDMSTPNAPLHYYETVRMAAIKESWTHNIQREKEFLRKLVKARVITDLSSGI

[13] = target: T1, Beta-galactoside alpha-2,6-sialyltransferase 1; assay: Inhibition of ST6N (unknown origin)
[14] = target: Histo-blood group ABO system transferase (Homo sapiens, UniProt P16442); assay: Inhibition of GTB (unknown origin)
Histo-blood group ABO system transferase, sequence (P16442 whole entry): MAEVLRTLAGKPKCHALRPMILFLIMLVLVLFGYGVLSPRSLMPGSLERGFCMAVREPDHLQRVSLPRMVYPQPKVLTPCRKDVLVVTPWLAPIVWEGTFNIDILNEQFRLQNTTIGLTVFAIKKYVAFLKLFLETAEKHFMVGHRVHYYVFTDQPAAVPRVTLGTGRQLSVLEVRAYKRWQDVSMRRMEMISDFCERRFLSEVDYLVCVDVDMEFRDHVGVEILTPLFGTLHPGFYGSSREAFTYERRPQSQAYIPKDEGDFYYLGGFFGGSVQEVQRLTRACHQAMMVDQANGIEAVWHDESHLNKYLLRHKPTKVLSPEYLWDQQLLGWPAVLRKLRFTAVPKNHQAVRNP

[15] = Inhibition of GTA (unknown origin); design: species or system Homo sapiens
[16] = Inhibition of AAGlyB (unknown origin); design: species or system Homo sapiens
[17] = Inhibition of alpha-(1,3)-GalT (unknown origin); design: species or system Homo sapiens
Staphylococcus aureus = assay: Antimicrobial activity against methicillin-resistant Staphylococcus aureus; assay type: functional
[18] = Inhibition of methicillin-resistant Staphylococcus aureus MurG
[19] = target: T1, Beta-galactoside alpha-2,6-sialyltransferase 1; assay: Inhibition of ST6Gal 1 (unknown origin)

IC50 [1]: 7.1 µM | IC50 [2]: 5.1 µM | IC50 [3]: 1.4 µM
Compound: O=c1cc(-c2ccc(O)c(O)c2)oc2ccccc12

IC50 [7]: 6.7 µM | Ki [8]: 10.7 µM | Ki [9]: 9.7 µM | IC50 [10]: 11.3 µM | IC50 [11]: 20.9 µM | IC50 [12]: 10 µM | IC50 [13]: 0.61 µM
Compound: C[C@@H]1CC[C@H]2C(C)(C)[C@H](O)CC[C@]2(C)[C@@]12Cc1c(O)cc(C=O)c(C=O)c1O2

Ki [14]: 800 µM | Ki [15]: 5100 µM | Ki [16]: > 15000 µM | Ki [17]: 6300 µM
Compound: c1ccc(-c2nsc(N3CCNCC3)n2)cc1

Continued, compound first:

Compound: C[C@@H]([C@H](N)C(=O)N[C@H](C(=O)O)[C@H]1O[C@@H](n2ccc(=O)[nH]c2=O)[C@H](O)[C@@H]1O)[C@H](O)c1ccc(O)cn1 [NIKKOMYCIN]
Ki [4]: 0.16 µM

Compound: O=C(O)c1cc(O)c(O)c(O)c1 [GALLIC ACID]
IC50 [5]: 14 µM | IC50 [6]: 19 µM

Compound: C[C@]12Cc3cnn(-c4ccncc4)c3C=C1CC[C@@H]1[C@@H]2CC[C@@]2(C)[C@H]1CC[C@]2(O)C(=O)CO
MIC (Staphylococcus aureus): 2 µg/mL (≈ 4.47 µM) | IC50 [18]: 115 µg/mL (≈ 257 µM)

Compound: C[C@H](CCC(=O)O)[C@H]1CC[C@H]2[C@@H]3CC[C@@H]4C[C@H](OC(=O)[C@H](CCC(=O)O)Nc5ccc([N+](=O)[O-])c6nonc56)CC[C@]4(C)[C@H]3CC[C@]12C
IC50 [7]: 0.88 µM | IC50 [19]: 1.5 µM
